Data published in the supplement of paper PMC10307832.

Tests used:
Assay in all cases: relative viability (nuclei count vs DMSO), 5 days (fraction); higher = more cells survive
201T = test system: 201T
Summary of the method: (§1)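 Five library-drug doses in √10 steps were combined with a fixed anchor-drug dose, or a single drug was given alone, by pin tool to lung cancer cell lines in 1536-well plates the day after seeding. Nuclei were stained and counted after 5 days. Relative viability is the nuclei count in treated wells over that in vehicle wells, taken as the median of duplicate plates.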

NCI-H727 = test system: NCI-H727
Summary of the method: as §1

NCI-H460 = test system: NCI-H460
Summary of the method: as §1

PC-3 [JPC-3] = test system: PC-3 [JPC-3]
Summary of the method: as §1

CAL-12T = test system: CAL-12T
Summary of the method: as §1

LK-2 = test system: LK-2
Summary of the method: as §1

HCC-15 = test system: HCC-15
Summary of the method: as §1

NCI-H1651 = test system: NCI-H1651
Summary of the method: as §1

NCI-H322M = test system: NCI-H322M
Summary of the method: as §1

NCI-H358 = test system: NCI-H358
Summary of the method: as §1

HCC-44 = test system: HCC-44
Summary of the method: as §1

NCI-H838 = test system: NCI-H838
Summary of the method: as §1

SW 900 = test system: SW 900
Summary of the method: as §1

EMC-BAC-2 = test system: EMC-BAC-2
Summary of the method: as §1

ABC-1 = test system: ABC-1
Summary of the method: as §1

NCI-H522 = test system: NCI-H522
Summary of the method: as §1

LU99A = test system: LU99A
Summary of the method: as §1

EKVX = test system: EKVX
Summary of the method: as §1

BEN = test system: BEN
Summary of the method: as §1

Structure (SMILES): CN1CCN(CCOc2cc(OC3CCOCC3)c3c(Nc4c(Cl)ccc5c4OCO5)ncnc3c2)CC1 [Saracatinib] + NC(=O)Nc1cc(-c2cccc(F)c2)sc1C(=O)N[C@H]1CCCNC1 [AZD7762] (partner 0.2 µM)
- relative viability (201T; first compound 0.02 µM): 0.554
- relative viability (201T; first compound 0.2 µM): 0.446
- relative viability (201T; first compound 0.6325 µM): 0.623
- relative viability (201T; first compound 2 µM): 0.625
- relative viability (NCI-H727; first compound 0.02 µM): 0.683
- relative viability (NCI-H727; first compound 0.2 µM): 0.522
- relative viability (NCI-H727; first compound 0.6325 µM): 0.616
- relative viability (NCI-H727; first compound 2 µM): 0.401
- relative viability (NCI-H460; first compound 0.02 µM): 0.732
- relative viability (NCI-H460; first compound 0.2 µM): 0.482
- relative viability (NCI-H460; first compound 0.6325 µM): 0.628
- relative viability (NCI-H460; first compound 2 µM): 0.596
- relative viability (PC-3 [JPC-3]; first compound 0.02 µM): 0.859
- relative viability (PC-3 [JPC-3]; first compound 0.2 µM): 0.638
- relative viability (PC-3 [JPC-3]; first compound 0.6325 µM): 0.573
- relative viability (PC-3 [JPC-3]; first compound 2 µM): 0.448
- relative viability (CAL-12T; first compound 0.02 µM): 0.612
- relative viability (CAL-12T; first compound 0.2 µM): 0.6
- relative viability (CAL-12T; first compound 0.6325 µM): 0.662
- relative viability (CAL-12T; first compound 2 µM): 0.699
- relative viability (LK-2; first compound 0.02 µM): 0.391
- relative viability (LK-2; first compound 0.2 µM): 0.219
- relative viability (LK-2; first compound 0.6325 µM): 0.262
- relative viability (LK-2; first compound 2 µM): 0.133
- relative viability (HCC-15; first compound 0.02 µM): 1.29
- relative viability (HCC-15; first compound 0.2 µM): 0.874
- relative viability (HCC-15; first compound 0.6325 µM): 1.14
- relative viability (HCC-15; first compound 2 µM): 1.21
- relative viability (NCI-H1651; first compound 0.02 µM): 0.549
- relative viability (NCI-H1651; first compound 0.2 µM): 0.359
- relative viability (NCI-H1651; first compound 0.6325 µM): 0.514
- relative viability (NCI-H1651; first compound 2 µM): 0.436
- relative viability (NCI-H322M; first compound 0.02 µM): 0.593
- relative viability (NCI-H322M; first compound 0.2 µM): 0.498
- relative viability (NCI-H322M; first compound 0.6325 µM): 0.552
- relative viability (NCI-H322M; first compound 2 µM): 0.353
- relative viability (NCI-H358; first compound 0.02 µM): 0.668
- relative viability (NCI-H358; first compound 0.2 µM): 0.418
- relative viability (NCI-H358; first compound 0.6325 µM): 0.364
- relative viability (NCI-H358; first compound 2 µM): 0.318
- relative viability (HCC-44; first compound 0.02 µM): 1.07
- relative viability (HCC-44; first compound 0.2 µM): 0.941
- relative viability (HCC-44; first compound 0.6325 µM): 1.03
- relative viability (HCC-44; first compound 2 µM): 1.01
- relative viability (NCI-H838; first compound 0.02 µM): 0.957
- relative viability (NCI-H838; first compound 0.2 µM): 0.886
- relative viability (NCI-H838; first compound 0.6325 µM): 0.989
- relative viability (NCI-H838; first compound 2 µM): 0.852
- relative viability (SW 900; first compound 0.02 µM): 0.696
- relative viability (SW 900; first compound 0.2 µM): 0.545
- relative viability (SW 900; first compound 0.6325 µM): 0.533
- relative viability (SW 900; first compound 2 µM): 0.492
- relative viability (EMC-BAC-2; first compound 0.02 µM): 1.12
- relative viability (EMC-BAC-2; first compound 0.2 µM): 1.09
- relative viability (EMC-BAC-2; first compound 0.6325 µM): 1.09
- relative viability (EMC-BAC-2; first compound 2 µM): 0.946
- relative viability (ABC-1; first compound 0.02 µM): 0.934
- relative viability (ABC-1; first compound 0.2 µM): 0.825
- relative viability (ABC-1; first compound 0.6325 µM): 0.908
- relative viability (ABC-1; first compound 2 µM): 0.695
- relative viability (NCI-H522; first compound 0.02 µM): 0.961
- relative viability (NCI-H522; first compound 0.2 µM): 0.809
- relative viability (NCI-H522; first compound 0.6325 µM): 0.807
- relative viability (NCI-H522; first compound 2 µM): 0.822
- relative viability (LU99A; first compound 0.02 µM): 0.374
- relative viability (LU99A; first compound 0.2 µM): 0.279
- relative viability (LU99A; first compound 0.6325 µM): 0.31
- relative viability (LU99A; first compound 2 µM): 0.325
- relative viability (EKVX; first compound 0.02 µM): 0.841
- relative viability (EKVX; first compound 0.6325 µM): 0.659
- relative viability (EKVX; first compound 2 µM): 0.29
- relative viability (BEN; first compound 0.02 µM): 0.906
- relative viability (BEN; first compound 0.2 µM): 0.511
- relative viability (BEN; first compound 0.6325 µM): 0.847
- relative viability (BEN; first compound 2 µM): 0.713

Structure (SMILES): Cc1cn(-c2cc(NC(=O)c3ccc(C)c(Nc4nccc(-c5cccnc5)n4)c3)cc(C(F)(F)F)c2)cn1 [Nilotinib] + NC(=O)Nc1cc(-c2cccc(F)c2)sc1C(=O)N[C@H]1CCCNC1 [AZD7762] (partner 0.2 µM)
- relative viability (201T; first compound 0.001 µM): 0.568
- relative viability (201T; first compound 0.003162 µM): 0.546
- relative viability (201T; first compound 0.01 µM): 0.563
- relative viability (201T; first compound 0.03162 µM): 0.424
- relative viability (201T; first compound 0.1 µM): 0.317
- relative viability (NCI-H727; first compound 0.001 µM): 0.574
- relative viability (NCI-H727; first compound 0.003162 µM): 0.528
- relative viability (NCI-H727; first compound 0.01 µM): 0.456
- relative viability (NCI-H727; first compound 0.03162 µM): 0.573
- relative viability (NCI-H727; first compound 0.1 µM): 0.58
- relative viability (NCI-H460; first compound 0.001 µM): 0.549
- relative viability (NCI-H460; first compound 0.003162 µM): 0.603
- relative viability (NCI-H460; first compound 0.01 µM): 0.389
- relative viability (NCI-H460; first compound 0.03162 µM): 0.427
- relative viability (NCI-H460; first compound 0.1 µM): 0.41
- relative viability (PC-3 [JPC-3]; first compound 0.001 µM): 0.8
- relative viability (PC-3 [JPC-3]; first compound 0.01 µM): 0.737
- relative viability (PC-3 [JPC-3]; first compound 0.03162 µM): 0.749
- relative viability (PC-3 [JPC-3]; first compound 0.1 µM): 0.527
- relative viability (CAL-12T; first compound 0.001 µM): 0.607
- relative viability (CAL-12T; first compound 0.003162 µM): 0.423
- relative viability (CAL-12T; first compound 0.01 µM): 0.631
- relative viability (CAL-12T; first compound 0.03162 µM): 0.539
- relative viability (CAL-12T; first compound 0.1 µM): 0.605
- relative viability (LK-2; first compound 0.001 µM): 0.349
- relative viability (LK-2; first compound 0.003162 µM): 0.447
- relative viability (LK-2; first compound 0.01 µM): 0.47
- relative viability (LK-2; first compound 0.03162 µM): 0.382
- relative viability (LK-2; first compound 0.1 µM): 0.514
- relative viability (HCC-15; first compound 0.001 µM): 1.1
- relative viability (HCC-15; first compound 0.003162 µM): 1.28
- relative viability (HCC-15; first compound 0.01 µM): 1.39
- relative viability (HCC-15; first compound 0.03162 µM): 1.25
- relative viability (HCC-15; first compound 0.1 µM): 1.19
- relative viability (NCI-H1651; first compound 0.001 µM): 0.444
- relative viability (NCI-H1651; first compound 0.003162 µM): 0.394
- relative viability (NCI-H1651; first compound 0.01 µM): 0.572
- relative viability (NCI-H1651; first compound 0.03162 µM): 0.401
- relative viability (NCI-H1651; first compound 0.1 µM): 0.239
- relative viability (NCI-H322M; first compound 0.001 µM): 0.597
- relative viability (NCI-H322M; first compound 0.003162 µM): 0.525
- relative viability (NCI-H322M; first compound 0.01 µM): 0.518
- relative viability (NCI-H322M; first compound 0.03162 µM): 0.41
- relative viability (NCI-H322M; first compound 0.1 µM): 0.407
- relative viability (NCI-H358; first compound 0.001 µM): 0.458
- relative viability (NCI-H358; first compound 0.003162 µM): 0.539
- relative viability (NCI-H358; first compound 0.01 µM): 0.556
- relative viability (NCI-H358; first compound 0.03162 µM): 0.459
- relative viability (NCI-H358; first compound 0.1 µM): 0.523
- relative viability (HCC-44; first compound 0.001 µM): 0.969
- relative viability (HCC-44; first compound 0.003162 µM): 1
- relative viability (HCC-44; first compound 0.01 µM): 0.996
- relative viability (HCC-44; first compound 0.1 µM): 0.923
- relative viability (NCI-H838; first compound 0.001 µM): 0.86
- relative viability (NCI-H838; first compound 0.003162 µM): 1.01
- relative viability (NCI-H838; first compound 0.03162 µM): 0.9
- relative viability (NCI-H838; first compound 0.1 µM): 0.995
- relative viability (SW 900; first compound 0.003162 µM): 0.479
- relative viability (SW 900; first compound 0.01 µM): 0.575
- relative viability (SW 900; first compound 0.03162 µM): 0.369
- relative viability (SW 900; first compound 0.1 µM): 0.304
- relative viability (EMC-BAC-2; first compound 0.001 µM): 1.05
- relative viability (EMC-BAC-2; first compound 0.003162 µM): 1.02
- relative viability (EMC-BAC-2; first compound 0.01 µM): 1.14
- relative viability (EMC-BAC-2; first compound 0.03162 µM): 1.02
- relative viability (EMC-BAC-2; first compound 0.1 µM): 1.03
- relative viability (ABC-1; first compound 0.001 µM): 0.667
- relative viability (ABC-1; first compound 0.003162 µM): 0.73
- relative viability (ABC-1; first compound 0.01 µM): 0.803
- relative viability (ABC-1; first compound 0.03162 µM): 0.787
- relative viability (ABC-1; first compound 0.1 µM): 0.387
- relative viability (NCI-H522; first compound 0.01 µM): 0.861
- relative viability (NCI-H522; first compound 0.03162 µM): 0.767
- relative viability (NCI-H522; first compound 0.1 µM): 0.649
- relative viability (LU99A; first compound 0.001 µM): 0.247
- relative viability (LU99A; first compound 0.003162 µM): 0.513
- relative viability (LU99A; first compound 0.01 µM): 0.498
- relative viability (LU99A; first compound 0.03162 µM): 0.33
- relative viability (LU99A; first compound 0.1 µM): 0.199
- relative viability (EKVX; first compound 0.001 µM): 0.599
- relative viability (EKVX; first compound 0.003162 µM): 0.654
- relative viability (EKVX; first compound 0.01 µM): 0.729
- relative viability (EKVX; first compound 0.03162 µM): 0.688
- relative viability (EKVX; first compound 0.1 µM): 0.555
- relative viability (BEN; first compound 0.001 µM): 0.76
- relative viability (BEN; first compound 0.003162 µM): 0.649
- relative viability (BEN; first compound 0.01 µM): 0.589
- relative viability (BEN; first compound 0.03162 µM): 0.6
- relative viability (BEN; first compound 0.1 µM): 0.53
